Assay results taken from patent US10689381B2 (priority 2017, dated 2020).
Read-outs that look alike come from different tables or passages of the source.

Tests used:
Test in all cases: cells
L1210 = format: cell-based, mouse
In short: (§1)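 Cells seeded at 30,000 cells/mL in DMEM with 10% FBS, then exposed for 72 h to compound at six concentrations spanning 0–1000 nM or 0–10000 nM, in duplicate. Final incubation at 37 °C lasted 5 min for L1210 and 15 min for HCT116.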

HCT116 = format: cell-based, human; details: read-out: IC50 HCT116
In short: as §1

HCT116/VM46 = format: cell-based, human; details: for IC50: read-out: IC50 HCT116/VM46
Procedure: Compounds were tested for their cell growth inhibition of L1210 (ATCC no. CCL-219, mouse lymphocytic leukemia), HCT116 (ATCC no. CCL-247, human colorectal carcinoma), and HCT116/VM46 (a vinblastine-resistant strain of HCT116) cells in culture. A population of cells (>1×10^6 cells/mL as determined with a hemocytometer) was diluted with Dulbecco's Modified Eagle Medium (DMEM, Gibco) containing 10% fetal bovine serum (FBS, Gibco) to give a final concentration of 30,000 cells/mL. To each well of a 96-well plate (Corning® Costar®) was added 100 μL of the cell media solution with a multichannel pipet. The cultures were incubated at 37° C. in an atmosphere of 5% CO2 and 95% humidified air for 24 hours.
The test compounds were then added to the plate as follows: test compounds were diluted in DMSO to a concentration of 1 mM. 10-Fold serial dilutions in DMSO were next performed on a separate 96-well plate. Fresh culture media (100 μL) was added to each well of cells resulting in 200 μL of medium per well followed by 2 μL of each test agent. Compounds were tested in duplicate (n=2-8 times) at six concentrations between 0-1000 nM or 0-10000 nM. Following the addition of compound, cultures were incubated for an additional 72 hours.
The plates were incubated at 37° C. for 5 minutes (L1210) or 15 min (HCT116 and HCT116/VM46). After the given incubation time, 50 μL of 0.1 N NaOH was added to each well and the absorption at 405 nm was determined using a 96 well plate reader. […]

A549-T24 = format: cell-based, human
From the text: (§2) 2001, 98:11737; Kavallaris et al., Brit. J. Cancer. 1999, 80:1020; and Kavallaris et al., J. Clin. Invest. 1997, 100:1282]. As a result, the comparison of cell growth inhibition of candidate drugs against A549 vs A549-T24 has been used to characterize potential resistance due to increased expression of class III β-tubulin [Goncalves et al., Proc. Natl. Acad. Sci. USA. 2001, 98:11737; Kavallaris et al., Brit. J. Cancer. 1999, 80:1020; and Kavallaris et al., J. Clin. Invest. 1997, 100:1282].

A549 = format: cell-based, human; details: Homo sapiens, A549
From the text: as §2

[1] = table b183, value in parentheses

## CCC1(NC(=O)c2cn(C)cn2)CC2CN(CCc3c([nH]c4ccccc34)C(C(=O)OC)(c3cc4c(cc3OC)N(C)C3C(O)(C(=O)OC)C(OC(C)=O)C5(CC)C=CCN6CCC43C65)C2)C1 (stereo not drawn) [Compound 142]
L1210; Table 5
  IC50: 80 nM
HCT116; Table 5
  IC50: 50 nM
HCT116/VM46; Table 5
  IC50: > 1000 nM

## CCC1(NC(=O)C2CCNCC2)CC2CN(CCc3c([nH]c4ccccc34)C(C(=O)OC)(c3cc4c(cc3OC)N(C)C3C(O)(C(=O)OC)C(OC(C)=O)C5(CC)C=CCN6CCC43C65)C2)C1 (stereo not drawn) [Compound 146]
L1210; Table 5
  IC50: 4200 nM
HCT116; Table 5
  IC50: > 10000 nM
HCT116/VM46; Table 5
  IC50: > 10000 nM

## CCC1(NS(=O)(=O)c2ccc(OC)cc2)CC2CN(CCc3c([nH]c4ccccc34)C(C(=O)OC)(c3cc4c(cc3OC)N(C)C3C(O)(C(=O)OC)C(OC(C)=O)C5(CC)C=CCN6CCC43C65)C2)C1 (stereo not drawn) [Compound 181]
L1210; Table 7, C20′ sulfonamides
  IC50: 35 nM
HCT116; Table 7, C20′ sulfonamides
  IC50: 30 nM

## CCC1(NS(=O)(=O)c2cccc([N+](=O)[O-])c2)CC2CN(CCc3c([nH]c4ccccc34)C(C(=O)OC)(c3cc4c(cc3OC)N(C)C3C(O)(C(=O)OC)C(OC(C)=O)C5(CC)C=CCN6CCC43C65)C2)C1 (stereo not drawn) [Compound 182]
L1210; Table 7, C20′ sulfonamides
  IC50: 450 nM
HCT116; Table 7, C20′ sulfonamides
  IC50: 490 nM

## CCC1(NS(=O)(=O)c2ccccc2[N+](=O)[O-])CC2CN(CCc3c([nH]c4ccccc34)C(C(=O)OC)(c3cc4c(cc3OC)N(C)C3C(O)(C(=O)OC)C(OC(C)=O)C5(CC)C=CCN6CCC43C65)C2)C1 (stereo not drawn) [Compound 183]
L1210; Table 7, C20′ sulfonamides
  IC50: 360 nM
HCT116; Table 7, C20′ sulfonamides
  IC50: 420 nM

## CCC1(NS(=O)(=O)c2c(C)cc(C)cc2C)CC2CN(CCc3c([nH]c4ccccc34)C(C(=O)OC)(c3cc4c(cc3OC)N(C)C3C(O)(C(=O)OC)C(OC(C)=O)C5(CC)C=CCN6CCC43C65)C2)C1 (stereo not drawn) [Compound 184]
L1210; Table 7, C20′ sulfonamides
  IC50: 500 nM
HCT116; Table 7, C20′ sulfonamides
  IC50: 580 nM

## CC[C@]1(NS(=O)(=O)c2ccc3ccccc3c2)C[C@H]2CN(CCc3c([nH]c4ccccc34)[C@@](C(=O)OC)(c3cc4c(cc3OC)N(C)[C@H]3[C@@](O)(C(=O)OC)[C@H](OC(C)=O)[C@]5(CC)C=CCN6CC[C@]43[C@@H]65)C2)C1 [Compound 185]
L1210; Table 7, C20′ sulfonamides
  IC50: 50 nM
HCT116; Table 7, C20′ sulfonamides
  IC50: 60 nM

## CCC1(NS(=O)(=O)c2cccc3c(N(C)C)cccc23)CC2CN(CCc3c([nH]c4ccccc34)C(C(=O)OC)(c3cc4c(cc3OC)N(C)C3C(O)(C(=O)OC)C(OC(C)=O)C5(CC)C=CCN6CCC43C65)C2)C1 (stereo not drawn) [Compound 186]
L1210; Table 7, C20′ sulfonamides
  IC50: 30 nM
HCT116; Table 7, C20′ sulfonamides
  IC50: 30 nM

## CC[C@]1(NC(=O)c2ccc(OC(F)(F)F)cc2)C[C@H]2CN(CCc3c([nH]c4ccc(F)cc34)[C@@](C(=O)OC)(c3cc4c(cc3OC)N(C)[C@H]3[C@@](O)(C(=O)OC)[C@H](OC(C)=O)[C@]5(CC)C=CCN6CC[C@]43[C@@H]65)C2)C1 [Compound 188]
L1210; Table 8, 10′-F compounds
  IC50: 0.6 nM
HCT116; Table 8, 10′-F compounds
  IC50: 0.7 nM

## CC[C@]1(NC(=O)c2ccc3c(c2)CCCC3)C[C@H]2CN(CCc3c([nH]c4ccc(F)cc34)[C@@](C(=O)OC)(c3cc4c(cc3OC)N(C)[C@H]3[C@@](O)(C(=O)OC)[C@H](OC(C)=O)[C@]5(CC)C=CCN6CC[C@]43[C@@H]65)C2)C1 [Compound 189]
L1210; Table 8, 10′-F compounds
  IC50: 5 nM
HCT116; Table 8, 10′-F compounds
  IC50: 6.2 nM

## CC(=O)O[C@H]1C(=O)[C@@]2(C)[C@H]([C@H](OC(=O)c3ccccc3)[C@]3(O)C[C@H](OC(=O)[C@H](O)[C@@H](NC(=O)c4ccccc4)c4ccccc4)C(C)=C1C3(C)C)[C@]1(OC(C)=O)CO[C@@H]1C[C@@H]2O [Taxol, reference compound]
HCT116; Homo sapiens, HCT-116, table b183
  IC50: 4.1 nM
HCT116/VM46; Homo sapiens, HCT-116/VM46, table b183
  IC50: > 200 nM
HCT116/VM46; [1]
  Measured fold resistant vs wt HCT116: > 50
A549-T24
  loss in potency A549-T24 relative to wild type A549: 10 fold
A549-T24; Homo sapiens
  IC50: 70 nM
A549-T24; [1]
  Measured fold resistant vs wt A549: 10
A549; read-out: IC50 A549
  IC50: 7.1 nM
A549; read-out: IC50 wild type A549
  IC50: 7.1 nM
